From patent US6476263B1, “Compounds for inhibiting β-amyloid peptide release and/or its synthesis” (Elan Pharmaceuticals, Inc., priority 1996, dated 2002)
Residues, ends and D or L forms follow the SMILES beside them.

Row | melting point [°C] | Compound
1 | 285.5 to 288.5 | NC(C(=O)NC(=O)C(NC(=O)Cc1cc(F)cc(F)c1)c1ccccc1)c1ccccc1 (mixture of isomers) [Example 248, N-[N-(3,5-Difluorophenylacetyl)-D,L-phenylglycinyl]-D,L-phenylglycinamide]
2 | 260.3 to 264.3 | CC(C)C(NC(=O)Cc1cc(F)cc(F)c1)C(=O)NC(=O)C(N)c1ccccc1 (mixture of isomers) [Example 249, N-[N-(3,5-Difluorophenylacetyl)-D,L-valinyl]-D,L-phenylglycinamide]
3 | 142 to 143 | CCCC[C@H](NC(=O)[C@H](C)NC(=O)Cc1cc(F)cc(F)c1)C(=O)OC [Example 1, Methyl N-[N-(3,5-Difluorophenylacetyl)-L-alaninyl]-(S)-2-aminohexanoate]
4 | 195 to 197 | COC(=O)[C@H](Cc1c[nH]cn1)NC(=O)[C@H](C)NC(=O)Cc1cc(F)cc(F)c1 [Example 2, N-[N-(3,5-Difluorophenylacetyl)-L-alaninyl]-L-histidine Methyl Ester]
5 | 125.5 to 126.5 | C=CCCC(=O)N[C@@H](C)C(=O)N[C@@H](Cc1ccccc1)C(=O)OC [Example 11, N-[N-(Pent-4-enoyl)-L-alaninyl]-L-phenylalanine Methyl Ester]
6 | 115.5 to 117.5 | CCCCCC=CCCC(=O)N[C@@H](C)C(=O)N[C@@H](Cc1ccccc1)C(=O)OC [Example 12, N-[N-(Dec-4-enoyl)-L-alaninyl]-L-phenylalanine Methyl Ester]
7 | 153 to 155 | COC(=O)[C@H](Cc1ccc(OCCCN(C)C)cc1)NC(=O)[C@H](C)NC(=O)Cc1cc(F)cc(F)c1 [Example 13, N-[N-(3,5-Difluorophenylacetyl)-L-alaninyl]-L-4-[3-(N,N-dimethylamino)propoxy]phenylalanine Methyl Ester]
8 | 116 to 119 | COC(=O)[C@H](Cc1ccc(OCC(=O)OC(C)(C)C)cc1)NC(=O)[C@H](C)NC(=O)Cc1cc(F)cc(F)c1 [Example 14, N-[N-(3,5-Difluorophenylacetyl)-L-alaninyl]-L-4-[(tert-butyloxycarbonyl)methoxy]phenylalanine Methyl Ester]
9 | 85 to 88 | COC(=O)[C@H](Cc1ccc(O)cc1)NC(=O)[C@H](C)NC(=O)Cc1cc(F)cc(F)c1 [Example 15, N-[N-(3,5-Difluorophenylacetyl)-L-alaninyl]-L-tyrosine Methyl Ester]
10 | 123 to 126 | COC(=O)[C@H](CCCCN(C)C)NC(=O)[C@H](C)NC(=O)Cc1cc(F)cc(F)c1 [Example 18, Methyl N-[N-(3,5-Difluorophenylacetyl)-L-alaninyl]-(S)-2-amino-6-(N,N-dimethylamino)hexanoate]
11 | 101 to 103 | COC(=O)[C@H](Cc1cccnc1)NC(=O)[C@H](C)NC(=O)Cc1cc(F)cc(F)c1 [Example 20, Methyl N-[N-(3,5-Difluorophenylacetyl)-L-alaninyl]-(S)-2-amino-3-(3-pyridyl)propionate]
12 | 165 to 168 | COCC(NC(=O)[C@H](C)NC(=O)Cc1cc(F)cc(F)c1)C(=O)OC (stereo partly drawn) [Example 24, Methyl N-[N-(3,5-Difluorophenylacetyl)-L-alaninyl]-2-amino-3-methoxypropionate]
13 | 158 to 160 | COC(=O)CNC(=O)[C@H](C)NC(=O)Cc1cc(F)cc(F)c1 [Example 28, N-[N-(3,5-Difluorophenylacetyl)-L-alaninyl]glycine Methyl Ester]
14 | 136 to 139 | COC(=O)[C@H](Cc1cscn1)NC(=O)[C@H](C)NC(=O)Cc1cc(F)cc(F)c1 [Example 31, Methyl N-[N-(3,5-Difluorophenylacetyl)-L-alaninyl]-(S)-2-amino-3-(thiazol-4-yl)propionate]
15 | 37 to 40 | COC(=O)C1Cc2ccccc2CN1C(=O)[C@H](C)NC(=O)Cc1cc(F)cc(F)c1 (stereo partly drawn) [Example 32, Methyl 2-[N-(3,5-Difluorophenylacetyl)-L-alaninyl]-1,2,3,4-tetrahydroisoquinoline-3-carboxylate]
16 | 145 to 147 | COC(=O)[C@H](Cc1cccs1)NC(=O)[C@H](C)NC(=O)Cc1cc(F)cc(F)c1 [Example 36, Methyl N-[N-(3,5-Difluorophenylacetyl)-L-alaninyl]-(S)-2-amino-3-(2-thienyl)propionate]
17 | 170 to 171 | C[C@H](NC(=O)Cc1cc(F)cc(F)c1)C(=O)N[C@@H](Cc1ccccc1)C(=O)OCc1ccccc1 [Example 37, N-[N-(3,5-Difluorophenylacetyl)-L-alaninyl]-L-phenylalanine Benzyl Ester]
18 | 138 to 142 | C[C@H](NC(=O)Cc1cc(F)cc(F)c1)C(=O)N[C@@H](Cc1ccccc1)C(=O)OCCCBr [Example 38, N-[N-(3,5-Difluorophenylacetyl)-L-alaninyl]-L-phenylalanine 3-Bromopropyl Ester]
19 | 128 | CC(C)C[C@H](NC(=O)[C@H](C)NC(=O)Cc1cc(F)cc(F)c1)C(=O)OC(C)(C)C [Example 40, N-[N-(3,5-Difluorophenylacetyl)-L-alaninyl]-L-leucine tert-Butyl Ester]
20 | 147 to 149.5 | COC(=O)[C@H](CCc1ccccc1)NC(=O)[C@H](C)NC(=O)Cc1cc(F)cc(F)c1 [Example 44, Methyl N-[N-(3,5-Difluorophenylacetyl)-L-alaninyl]-(S)-2-amino-4-phenylbutanoate]

Row | melting point [°C] | Compound
21 | 154 to 155.2 | C[C@H](NC(=O)Cc1cc(F)cc(F)c1)C(=O)NCC(=O)OCCc1ccccc1 [Example 45, N-[N-(3,5-Difluorophenylacetyl)-L-alaninyl]glycine 2-Phenylethyl Ester]
22 | 137 | C[C@H](NC(=O)Cc1cc(F)cc(F)c1)C(=O)NCC(=O)OCCCc1ccccc1 [Example 46, N-[N-(3,5-Difluorophenylacetyl)-L-alaninyl]glycine 3-Phenylpropyl Ester]
23 | 146 to 157 | CCOC(=O)C(NC(=O)[C@H](C)NC(=O)Cc1cc(F)cc(F)c1)c1cccnc1 (stereo partly drawn) [Example 53, Ethyl N-[N-(3,5-Difluorophenylacetyl)-L-alaninyl]-2-amino-2-(3-pyridyl)acetate]
24 | 163 to 170 | COC(=O)C(NC(=O)[C@H](C)NC(=O)Cc1cc(F)cc(F)c1)c1cccc(OC)c1 (stereo partly drawn) [Example 63, Methyl N-[N-(3,5-Difluorophenylacetyl)-L-alaninyl]-2-amino-2-(3-methoxyphenyl)acetate]
25 | 170 to 174 | COC(=O)C(NC(=O)[C@H](C)NC(=O)Cc1cc(F)cc(F)c1)c1ccc(OC)cc1 (stereo partly drawn) [Example 64, Methyl N-[N-(3,5-Difluorophenylacetyl)-L-alaninyl]-2-amino-2-(4-methoxyphenyl)acetate]
26 | 123 to 125 | CCOC(=O)C(NC(=O)[C@H](C)NC(=O)Cc1cc(F)cc(F)c1)c1ccccn1 (stereo partly drawn) [Example 65, Ethyl N-[N-(3,5-Difluorophenylacetyl)-L-alaninyl]-2-amino-2-(2-pyridyl)acetate]
27 | 175 to 181 | CCOC(=O)C(NC(=O)[C@H](C)NC(=O)Cc1cc(F)cc(F)c1)c1ccncc1 (stereo partly drawn) [Example 66, Ethyl N-[N-(3,5-Difluorophenylacetyl)-L-alaninyl]-2-amino-2-(4-pyridyl)acetate]
28 | 156 to 158 | COC(=O)[C@H](Cc1ccccc1)NC(=O)[C@H](C)NC(=O)CC1CCCCC1 [Example 67, N-[N-(Cyclohexylacetyl)-L-alaninyl]-L-phenylalanine Methyl Ester]
29 | 137 to 139 | COC(=O)[C@H](Cc1ccccc1)NC(=O)[C@H](C)NC(=O)CC1CCCC1 [Example 68, N-[N-(Cyclopentylacetyl)-L-alaninyl]-L-phenylalanine Methyl Ester]
30 | 139 to 142 | COC(=O)[C@H](Cc1ccccc1)NC(=O)[C@H](C)NC(=O)CC1=CCCCC1 [Example 69, N-[N-(Cyclohex-1-enylacetyl)-L-alaninyl]-L-phenylalanine Methyl Ester]
31 | 128 to 131 | COC(=O)[C@H](Cc1ccccc1)NC(=O)[C@H](C)NC(=O)CC1CC1 [Example 72, N-[N-(Cyclopropylacetyl)-L-alaninyl]-L-phenylalanine Methyl Ester]
32 | 167.5 | C[C@H](NC(=O)Cc1cc(F)cc(F)c1)C(=O)NCC(=O)OCc1ccccc1 [Example 73, N-[N-(3,5-Difluorophenylacetyl)-L-alaninyl]glycine Benzyl Ester]
33 | 198 to 201 | CCOC(=O)[C@H](C)NC(=O)[C@@H](NC(=O)CC(C)C)c1ccccc1 [Example 74, N-[N-(Isovaleryl)-L-phenylglycinyl]-L-alanine Ethyl Ester] (HELM PEPTIDE1{[CC(C)CC(=O)[*:2]].[Phg].A.[CCO[*:1]]}$$$$V2.0)
34 | 154 to 158 | COC(=O)[C@H](Cc1ccccc1)NC(=O)[C@H](C)NC(=O)Cc1cccc([N+](=O)[O-])c1 [Example 75, N-[N-(3-Nitrophenylacetyl)-L-alaninyl]-L-phenylalanine Methyl Ester]
35 | 193 to 195 | CCOC(=O)[C@H](C)NC(=O)[C@H](C)NC(=O)Cc1cccc([N+](=O)[O-])c1 [Example 76, N-[N-(3-Nitrophenylacetyl)-L-alaninyl]-L-alanine Ethyl Ester]
36 | 164 to 165 | CCOC(=O)CNC(=O)[C@H](C)NC(=O)Cc1cccc([N+](=O)[O-])c1 [Example 77, N-[N-(3-Nitrophenylacetyl)-L-alaninyl]glycine Ethyl Ester]
37 | 181 to 186 | CC(C)COC(=O)[C@H](C)NC(=O)[C@@H](NC(=O)CC(C)C)c1ccccc1 [Example 79, N-[N-(Isovaleryl)-L-phenylglycinyl]-L-alanine iso-butyl Ester]
38 | 117 to 119 | CCOC(=O)[C@H](Cc1ccc(O)cc1)NC(=O)[C@H](C)NC(=O)Cc1cccc([N+](=O)[O-])c1 [Example 81, N-[N-(3-Nitrophenylacetyl)-L-alaninyl]-L-tyrosine Ethyl Ester]
39 | 142 to 146 | CC[C@H](C)[C@H](NC(=O)CC(C)C)C(=O)N[C@@H](C)C(=O)OCC(C)C [Example 82, N-[N-(Isovaleryl)-L-isoleucinyl]-L-alanine iso-butyl Ester]
